Numbers after ± are expanded uncertainties.
Experiment: xn = mol fraction of the nth substance listed
Details: 101.3 kPa, Liquid

COCCOC [1,2-dimethoxyethane] + ClCCCl
mass density [kg/m3]
Details | 308.15 K | 313.15 K | 318.15 K | 323.15 K | 328.15 K | 333.15 K
x2 = 0.0251 | – | 852.25 ± 0.53 | 846.59 ± 0.53 | 840.89 ± 0.54 | 835.13 ± 0.55 | 829.32 ± 0.55
x2 = 0.05 | – | 859.77 ± 0.51 | 854.09 ± 0.52 | 848.36 ± 0.52 | 842.55 ± 0.53 | 836.72 ± 0.54
x2 = 0.0501 | – | 859.82 ± 0.51 | 854.13 ± 0.52 | 848.39 ± 0.52 | 842.6 ± 0.53 | 836.76 ± 0.54
x2 = 0.075 | – | 867.42 ± 0.5 | 861.7 ± 0.5 | 855.93 ± 0.51 | 850.11 ± 0.52 | 844.24 ± 0.52
x2 = 0.1 | – | 875.11 ± 0.49 | 869.35 ± 0.49 | 863.55 ± 0.5 | 857.7 ± 0.51 | 851.8 ± 0.51
x2 = 0.1552 | – | 892.54 ± 0.46 | 886.71 ± 0.46 | 880.84 ± 0.47 | 874.92 ± 0.48 | 868.95 ± 0.48
x2 = 0.2001 | – | 906.96 ± 0.43 | 901.08 ± 0.44 | 895.15 ± 0.44 | 889.17 ± 0.45 | 883.15 ± 0.46
x2 = 0.2501 | – | 923.37 ± 0.4 | 917.42 ± 0.41 | 911.42 ± 0.42 | 905.37 ± 0.42 | 899.27 ± 0.43
x2 = 0.3002 | – | 940.18 ± 0.38 | 934.15 ± 0.38 | 928.08 ± 0.39 | 921.97 ± 0.4 | 915.79 ± 0.4
x2 = 0.35 | – | 957.24 ± 0.35 | 951.14 ± 0.36 | 945 ± 0.37 | 938.81 ± 0.37 | 932.56 ± 0.38
x2 = 0.4001 | – | 974.8 ± 0.33 | 968.62 ± 0.33 | 962.41 ± 0.34 | 956.14 ± 0.35 | 949.82 ± 0.35
x2 = 0.45 | – | 992.71 ± 0.31 | 986.46 ± 0.31 | 980.16 ± 0.32 | 973.82 ± 0.32 | 967.42 ± 0.33
x2 = 0.5 | 1017.36 ± 0.32 | 1011.06 ± 0.31 | 1004.73 ± 0.3 | 998.35 ± 0.3 | 991.93 ± 0.3 | 985.45 ± 0.31
x2 = 0.5001 | 1017.45 ± 0.32 | 1011.16 ± 0.31 | 1004.83 ± 0.3 | 998.45 ± 0.3 | 992.02 ± 0.3 | 985.53 ± 0.31
x2 = 0.55 | 1036.29 ± 0.34 | 1029.91 ± 0.33 | 1023.49 ± 0.32 | 1017.03 ± 0.31 | 1010.51 ± 0.3 | 1003.94 ± 0.3
x2 = 0.6001 | 1055.67 ± 0.36 | 1049.2 ± 0.35 | 1042.69 ± 0.34 | 1036.13 ± 0.33 | 1029.53 ± 0.32 | 1022.87 ± 0.32
x2 = 0.65 | 1075.5 ± 0.38 | 1068.94 ± 0.37 | 1062.34 ± 0.36 | 1055.68 ± 0.35 | 1048.98 ± 0.35 | 1042.24 ± 0.34
x2 = 0.7 | 1095.88 ± 0.41 | 1089.21 ± 0.4 | 1082.51 ± 0.39 | 1075.76 ± 0.38 | 1068.97 ± 0.37 | 1062.12 ± 0.36
x2 = 0.75 | 1116.88 ± 0.43 | 1110.11 ± 0.42 | 1103.31 ± 0.41 | 1096.45 ± 0.4 | 1089.55 ± 0.39 | 1082.61 ± 0.38
x2 = 0.8 | 1138.31 ± 0.46 | 1131.44 ± 0.45 | 1124.52 ± 0.44 | 1117.56 ± 0.43 | 1110.55 ± 0.42 | 1103.5 ± 0.41
x2 = 0.85 | 1160.61 ± 0.49 | 1153.62 ± 0.48 | 1146.58 ± 0.47 | 1139.51 ± 0.46 | 1132.39 ± 0.45 | 1125.22 ± 0.44
x2 = 0.9 | 1183.44 ± 0.51 | 1176.32 ± 0.5 | 1169.16 ± 0.49 | 1161.97 ± 0.48 | 1154.73 ± 0.47 | 1147.44 ± 0.46
x2 = 0.925 | 1195 ± 0.53 | 1187.82 ± 0.52 | 1180.61 ± 0.51 | 1173.35 ± 0.5 | 1166.05 ± 0.49 | 1158.7 ± 0.48
x2 = 0.975 | 1218.9 ± 0.56 | 1211.59 ± 0.55 | 1204.25 ± 0.54 | 1196.86 ± 0.53 | 1189.43 ± 0.52 | 1181.97 ± 0.51

From the NIST ThermoML archive (doi:10.1021/je101361u)
